Laboratory results: patent US10618886B1, “Compounds as neuronal histamine receptor-3 antagonists and uses thereof” (XW LABORATORIES INC., priority 2018, dated 2020)

What was measured:
[1] = target: T1, histamine H3 receptor (hH3R) (Homo sapiens (Human), UniProt Q9Y5N1); assay: [35S]-GTPγS binding assay, inverse agonist mode, HEK293/Ga15/hH3R membranes; type: biochemical; conditions: no agonist, 10 points, 3-fold dilution from 1 μM
Protocol: (§1) The histamine H3 receptors mediate the histamine signals in CNS and peripheral nervous system. Histamine H3 receptors couple directly to a Gi/Go, resulting in subsequent GTPγδ binding. Although GTPγδ binding assays are carried out using membrane preparations in the similar way as radioligand binding assays, these are functional assays and can be used to differentiate agonist, antagonist, and inverse agonist activities. Such assays are carried out using [^35S]-guanosine-5′-O-(3-thio) triphosphate which provides a radioactive ligand with high affinity for G-protein a subunits that is highly resistant to the inherent GTPase activity of a subunits, such that it remains bound for sufficient periods of time to allow counting of radioactivity. The GTPγδ binding assay was performed using HEK293/Ga15/hH3R cell line with high histamine H3 receptors expression to determine H3 receptor GTPγδ binding affinity of representative compounds.
(§2) 1. [^35S]-GTPγδ binding assay for determining antagonist and inverse agonist pharmacological parameters of histamine H3 receptor ligands:
(§3) Experimental procedure: 1) Membrane preparation for HEK293/Ga15/hH3R; 2) Standard binding assay. Briefly, for membrane […], HEK293/Ga15/hH3R cells were grown to confluence, harvested and the cell pellets were suspended in TEL buffer (50 mM Tris-HCl buffer, 1 mM EGTA, 0.1 mM PMSF). Homogenate and centrifuge at 1,000 g for 10 min. Centrifuge the supernatant at 46,000 g for 30 min. Suspend the membrane pellet in 50 mM Tris with 0.32 M sucrose, pH 7.0. Aliquot at 1 mg protein/mL. Keep frozen and store at −80° C. until use. All compounds were prepared by dissolving in DMSO to make 10 mM stock. The 10 mM stock was used as top concentration […] to carry out 10-points, 3-fold dilution scheme using DMSO in a 96-well plate to make the compound dose plate. H3R GTPγδ binding assay was performed as followings: thaw the membrane at 37° C., chill on ice, add GDP and the membrane to assay buffer (50 mM Tris-HCl, 100 mM NaCl, 5 mM MgCl2, pH 7.4, and 0.2%, BSA). Stay on ice for 20 min. […] Add 20 μL [^35S]-GTPγδ (final 200 pM) and incubate at room temperature for 60 min. For antagonist mode: Add 20 μL agonist (R-alpha-methylhistamine, final concentration 1 μM), 20 μL testing compound (final top concentration 1 μM, 3-fold dilution, 10 points), 20 μL [^35S]-GTPγδ (final 200 pM), 140 μL membrane solution (total 200 μL, GDP 10μM, membrane protein 20 μg/well) to the assay plate. Incubate at room temperature for 60 min. Filter the assay plate on GF/C (non-PEI coated) plate to stop the assay. Dry GF/C plate for 1 h. Add 50 μL scintillation fluid and count on the MicroBeta.
(§4) Data Analysis: The CPM values were calculated into % of inhibition with the following formula:
For inverse agonist mode: % of inhibition=(DMSO control CPM−Compound CPM)/(DMSO control CPM−GTP control CPM)×100.
(§5) IC50s were calculated using Prism5 with log(inhibitor) vs. response equation.

[2] = target: T1, histamine H3 receptor (hH3R); assay: [35S]-GTPγS binding assay, antagonist mode, HEK293/Ga15/hH3R membranes; type: biochemical; conditions: agonist R-alpha-methylhistamine 1 μM, 10 points, 3-fold dilution from 1 μM
Protocol: as §1, §2, §3, §4
For antagonist mode: % of inhibition=(R-alpha-methyl-histamine control CPM−Compound CPM)/(R-alpha-methyl-histamine control CPM−DMSO control CPM)×100.
as §5

T1 sequence (Q9Y5N1 whole entry): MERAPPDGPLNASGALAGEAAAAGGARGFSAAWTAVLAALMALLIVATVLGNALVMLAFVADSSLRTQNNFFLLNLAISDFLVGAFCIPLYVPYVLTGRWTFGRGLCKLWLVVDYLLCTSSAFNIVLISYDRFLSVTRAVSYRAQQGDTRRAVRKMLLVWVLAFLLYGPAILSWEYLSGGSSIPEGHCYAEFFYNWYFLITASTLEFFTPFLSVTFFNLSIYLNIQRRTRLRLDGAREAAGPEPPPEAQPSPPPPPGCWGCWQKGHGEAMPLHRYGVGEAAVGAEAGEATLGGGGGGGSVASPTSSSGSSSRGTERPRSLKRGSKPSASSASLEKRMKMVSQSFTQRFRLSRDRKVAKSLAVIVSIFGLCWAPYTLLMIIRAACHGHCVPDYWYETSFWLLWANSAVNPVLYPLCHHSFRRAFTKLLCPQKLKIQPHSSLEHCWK

Row | SMILES | IC50 [1] [nM] | IC50 [2] [nM]
1 | Cc1nc2ccc(S(F)(F)(F)(F)F)cc2c(=O)n1-c1ccc(OC2CCN(C(=O)C3CCOCC3)CC2)cc1 [XXI, 2-methyl-3-(4-((1-(tetrahydro-2H-pyran-4-carbonyl)piperidin-4-yl)oxy)phenyl)-6-(pentafluorosulfanyl)quinazolin-4(3H)-one] | 286 | > 1000
2 | Cc1nc2ccc(S(F)(F)(F)(F)F)cc2c(=O)n1-c1ccc(OC2CCN(C(=O)C3CCN(C)CC3)CC2)cc1 [XX, 2-methyl-3-(4-((1-(1-methylpiperidine-4-carbonyl)piperidin-4-yl)oxy)phenyl)-6-(pentafluorosulfanyl)quinazolin-4(3H)-one] | 50.5 | 814
3 | Cc1nc2ccc(S(F)(F)(F)(F)F)cc2c(=O)n1-c1ccc(OCCCN2CCC(C)C2)cc1 (centres unmarked) [VII, 2-methyl-3-(4-(3-(3-methylpyrrolidin-1-yl)propoxy)phenyl)-6-(pentafluorosulfanyl)quinazolin-4(3H)-one] | 10.5 | 3.44
4 | COc1cc(OCCCN2CCCC2)ccc1-n1c(C)nc2ccc(S(F)(F)(F)(F)F)cc2c1=O [VI, 3-(2-methoxy-4-(3-(pyrrolidin-1-yl)propoxy)phenyl)-2-methyl-6-(pentafluorosulfanyl)quinazolin-4(3H)-one] | 5.5 | 5.36
5 | Cc1nc2ccc(S(F)(F)(F)(F)F)cc2c(=O)n1-c1ccc(OC2CCN(C(=O)C3CCCCC3)CC2)cc1 [XIX, 3-(4-((1-(cyclohexanecarbonyl)piperidin-4-yl)oxy)phenyl)-2-methyl-6-(pentafluorosulfanyl)quinazolin-4(3H)-one] | > 1000 | > 1000
6 | Cc1nc2ccc(S(F)(F)(F)(F)F)cc2c(=O)n1-c1ccc(OC2CCN(C3CCCC3)CC2)cc1 [XVI] | 175 | 116
7 | COc1cc(OC2CCN(C(=O)C3CCOCC3)CC2)ccc1-n1c(C)nc2ccc(S(F)(F)(F)(F)F)cc2c1=O [XXII, 3-(2-methoxy-4-((1-(tetrahydro-2H-pyran-4-carbonyl)piperidin-4-yl)oxy)phenyl)-2-methyl-6-(pentafluorosulfanyl)quinazolin-4(3H)-one] | 229 | 242
